Reference: patent US11021481B2, “Substituted isoindolin-1-ones and 2,3-dihydro-1h-pyrrolo[3,4-c]pyridin-1-ones as HPK1 antagonists” (Nimbus Saturn, Inc., priority 2019, dated 2021)

What follows are compounds tested against HPK1 (Homo sapiens (Human), UniProt Q92918) (assay: HPK1 biochemical enzyme assay (microfluidic mobility shift assay)). Settings: 1.5 nM HPK1, ATP 1 mM final, 30 min preincubation, 60 min at RT, Caliper EZ Reader; read-out: HPK1 1000UMATP caliper IC50.
Sequence of HPK1 (Q92918 whole entry): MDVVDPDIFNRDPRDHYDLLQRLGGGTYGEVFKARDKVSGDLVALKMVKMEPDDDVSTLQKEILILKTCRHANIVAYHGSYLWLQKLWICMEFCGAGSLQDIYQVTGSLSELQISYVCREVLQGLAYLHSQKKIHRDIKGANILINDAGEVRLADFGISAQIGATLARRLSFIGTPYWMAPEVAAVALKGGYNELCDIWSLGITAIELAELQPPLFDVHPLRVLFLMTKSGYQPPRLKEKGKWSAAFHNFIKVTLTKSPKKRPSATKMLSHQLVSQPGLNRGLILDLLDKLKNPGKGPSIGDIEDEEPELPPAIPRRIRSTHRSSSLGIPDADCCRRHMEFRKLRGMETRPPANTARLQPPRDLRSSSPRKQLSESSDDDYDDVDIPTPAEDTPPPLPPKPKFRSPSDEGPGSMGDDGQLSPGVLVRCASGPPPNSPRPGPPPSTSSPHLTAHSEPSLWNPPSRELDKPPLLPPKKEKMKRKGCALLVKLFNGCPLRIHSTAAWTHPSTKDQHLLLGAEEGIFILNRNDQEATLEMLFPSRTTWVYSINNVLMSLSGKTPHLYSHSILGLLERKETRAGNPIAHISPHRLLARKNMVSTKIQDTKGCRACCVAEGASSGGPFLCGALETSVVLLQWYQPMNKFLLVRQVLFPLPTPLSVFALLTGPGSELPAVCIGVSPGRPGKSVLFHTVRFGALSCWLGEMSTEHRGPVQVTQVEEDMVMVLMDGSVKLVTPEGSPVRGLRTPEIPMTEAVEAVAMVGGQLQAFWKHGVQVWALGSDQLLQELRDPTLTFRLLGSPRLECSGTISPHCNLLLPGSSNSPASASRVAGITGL
In short: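 Ten-point compound titrations (top 3 μM final) preincubated 30 min with HPK1 and substrate, then reaction started with 1 mM ATP and 1 μM substrate, 5 mM MgCl2. After 60 min at RT, reaction terminated and product measured by microfluidic mobility shift.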
`Cn1ccc2c(-c3ccc(Nc4ccc(N5CCC6(CC5)COC6)cn4)c4c3CNC4=O)ccnc21` [I-299] gave an IC50 of under 0.1 µM.
`O=C1NCc2c(-c3cnc4cnccn34)ccc(Nc3ccc(N4CCCOCC4)cn3)c21` [I-300, 7-((5-(1,4-oxazepan-4-yl)pyridin-2-yl)amino)-4-(imidazo[1,2-a]pyrazin-3-yl)isoindolin-1-one] showed an IC50 of under 0.1 µM.
`O=C1NCc2c(-c3cnc4cnccn34)ccc(Nc3ccc(N4CCCC(O)CC4)cn3)c21` (stereo not drawn) [I-301, 7-((5-(4-hydroxyaze-pan-1-yl)pyridin-2-yl)amino)-4-(imidazo[1,2-a]pyrazin-3-yl)isoindolin-1-one] showed an IC50 of under 0.1 µM.
`C[C@H]1CCn2c(-c3ccc(Nc4ccc(N5CCC(O)CC5)cn4)c4c3CNC4=O)cnc2C1` [I-303, (S)-7-((5-(4-hydroxy-piperidin-1-yl)pyridin-2-yl)amino)-4-(7-methyl-5,6,7.8-tetrahydroimi-dazo[1,2-a]pyridin-3-yl)isoindolin-1-one] was tested, and the IC50 was under 0.1 µM.
`O=C1NCc2c(-c3cnc4cnccn34)ccc(Nc3ccc(N4[C@@H]5CC[C@H]4C[C@@H](O)C5)cn3)c21` [I-304, 7-((5-((1R,3r,5S)-3-hydroxy-8-azabicyclo [3,2.1]octan-8-yl)pyridin-2-yl)amino)-4-(imidazo[1,2-a]pyrazin-3-yl)isoindolin-1-one] showed an IC50 of under 0.1 µM.
`O=C1NCc2c(-c3cnc4cnccn34)ccc(Nc3ccc(S(=O)(=O)N4CCC4)cn3)c21` [I-307, 7-((5-(azetidin-1-ylsulfonyl)-pyridin-2-yl)amino)-4-(imidazo[1,2-a]pyrazin-3-yl)isoindolin-1-one] was tested, and the IC50 was 0.1 to 1 µM.
Work on `Cn1ccc2c(-c3ccc(-n4ccc(N5CCC(O)CC5)n4)c4c3CNC4=O)ccnc21` [I-308, 7-(3-(4-hydroxypiper-idin-1-yl)-1H-pyrazol-1-yl)-4-(1-methyl-1H-pyrrolo[2,3-b)pyridin-4-yl)isoindolin-1-one] yielded an IC50 of over 1 µM.
For `Cn1ccc2c(-c3ncc(Nc4ccc(N5C[C@@H]6C[C@H]5CO6)cn4)c4c3CNC4=O)ccnc21` [I-309, 7-((5-((1S,4S)-2-oxa-5-azabicyclo[2.2.1]heptan-5-yl)pyridin-2-yl)amino)-4-(1-methyl-1H-pyrrolo[2,3-b]pyridin-4-yl)-2,3-dihydro-1H-pyrrolo[3,4-c]pyridin-1-one], the IC50 was under 0.1 µM.
In the case of `CC(C)(O)[C@H]1CCCN(c2ccc(Nc3ccc(-c4cnc5cnccn45)c4c3C(=O)NC4)nc2)C1` [I-310, (S)-7-((5-(3-(2-hydroxypropan-2-yl)piperidin-1-yl)pyridin-2-yl)amino)-4-(imidazo[1,2-a]pyrazin-3-yl)isoindolin-1-one], the IC50 is reported as under 0.1 µM.
For `CC(C)(O)[C@@H]1CCCN(c2ccc(Nc3ccc(-c4cnc5cnccn45)c4c3C(=O)NC4)nc2)C1` [I-311, (R)-7-((5-(3-(2-hydroxypropan-2-yl)piperidin-1-yl)pyridin-2-yl)amino)-4-(imidazo[1,2-a]pyrazin-3-yl)isoindolin-1-one], the IC50 was under 0.1 µM.
In the case of `O=C1NCc2c(-c3cnc4cnccn34)ccc(Nc3ccc(N4CC5(COC5)C4)cn3)c21` [I-312, 7-((5-(2-oxa-6-azaspiro[3,3]heptan-6-yl)pyridin-2-yl)amino)-4-(imidazo[1,2-a]pyrazin-3-yl)isoindolin-1-one], the IC50 is reported as under 0.1 µM.
Compound `CC1(O)CCN(c2ccc(Nc3ccc(-c4cnc5cnccn45)c4c3C(=O)NC4)nc2)CC1` [I-313, 7-((5-(4-hydroxy-4-methylpiperidin-1-yl)pyridin-2-yl)amino)-4-(imidazo[1,2-a]pyrazin-3-yl)isoindolin-1-one] has an IC50 of under 0.1 µM.
For `C[C@H]1COCCN1c1ccc(Nc2ccc(-c3cnc4cnccn34)c3c2C(=O)NC3)nc1` [I-314, (S)-4-(imidazo[1,2-a]pyrazin-3-yl)-7-((5-(3-methylmorpho-lino)pyridin-2-yl)amino)isoin-dolin-1-one], the IC50 was under 0.1 µM.
For `O=C1NCc2c(-c3cnc4cnccn34)ccc(Nc3ccc(N4CC(O)C4)cn3)c21` [I-315, 7-((5-(3-hydroxyazeti-din-1-yl)pyridin-2-yl)amino)-4-(imidazo[1,2-a]pyrazin-3-yl)isoindolin-1-one], the IC50 was under 0.1 µM.
Work on `C[C@@H]1NC(=O)c2c(Nc3ccc(N4CCC(O)CC4)cn3)ccc(-c3cnc4ccccn34)c21` [I-316, (S)-7-((5-(4-hydroxypip-eridin-1-yl)pyridin-2-yl)amino)-4-(imidazo[1,2-a]pyridin-3-yl)-3-methylisoindo-lin-1-one] yielded an IC50 of over 1 µM.
In the case of `C[C@H]1NC(=O)c2c(Nc3ccc(N4CCC(O)CC4)cn3)ccc(-c3cnc4ccccn34)c21` [I-317, (R)-7-((5-(4-hydroxy-piperidin-1-yl)pyridin-2-yl)amino)-4-(imidazo[1,2-a]pyridin-3-yl)-3-methylisoindo-lin-1-one], the IC50 is reported as under 0.1 µM.
For `O=C1NCc2c(-c3cnc4cnccn34)ccc(Nc3ccc(N4C[C@H]5COC[C@H]5C4)cn3)c21` [I-318, 4-(imidazo[1,2-a]pyrazin-3-yl)-7-((5-((3aR,6aS)-tetrahydro-1H-furo[3,4-c]pyrrol-5(3H)-yl)pyridin-2-yl)amino)isoin-dolin-1-one], the IC50 was under 0.1 µM.
Work on `CC(C)N1CCN(c2ccc(Nc3cnc(-c4ccnc5c4ccn5C)c4c3C(=O)NC4)nc2)CC1` [I-319, 7-((5-(4-isopropylpiperazin-1-yl)pyridin-2-yl)amino)-4-(1-methyl-1H-pyrrolo[2,3-b]pyridin-4-yl)-2,3-dihydro-1H-pyrrolo[3,4-c]pyridin-1-one] yielded an IC50 of under 0.1 µM.
In the case of `O=C1NCc2c(-c3cnc4cnccn34)ccc(Nc3ccc(N4[C@@H]5CC[C@H]4C[C@H](O)C5)cn3)c21` [I-320, 7-((5-((1R,3s,5S)-3-hydroxy-8-azabicyclo [3,2.1]octan-8-yl)pyridin-2-yl)amino)-4-(imidazo[1,2-a]pyrazin-3-yl)isoindolin-1-one], the IC50 is reported as under 0.1 µM.
Compound `O=C1NCc2c(-c3cnc4cc(F)ccn34)ccc(Nc3ccc(S(=O)(=O)CC4CCC4)cn3)c21` [I-321, 7-((5-((cyclobutyl-methyl)sulfonyl)pyridin-2-yl)amino)-4-(7-fluoroimidazo [1,2-a]pyridin-3-yl)isoindolin-1-one] has an IC50 of under 0.1 µM.
`O=C1NCc2c(-c3cnc4cc(F)ccn34)ccc(Nc3cccc(N4CC(O)C4)n3)c21` [I-323, 4-(7-fluoroimidazo [1,2-a]pyridin-3-yl)-7-((6-(3-hydroxyazeti-din-1-yl)pyridin-2-yl)amino)isoin-dolin-1-one] gave an IC50 of over 1 µM.
`O=C1NCc2c(-c3cnc4cnccn34)ccc(Nc3cc(N4CCC(O)CC4)ccn3)c21` [I-324, 7-((4-(4-hydroxy-piperidin-1-yl)pyridin-2-yl)amino)-4-(imidazo[1,2-a]pyrazin-3-yl)isoindolin-1-one] gave an IC50 of over 1 µM.
Work on `CN1C[C@@H](c2ccc(Nc3ccc(-c4cnc5cnccn45)c4c3C(=O)NC4)nc2)CCC1=O` [I-325, (R)-4-(imidazo[1,2-a]pyrazin-3-yl)-7-((5-(1-methyl-6-oxopiperidin-3-yl)pyridin-2-yl)amino)isoin-dolin-1-one] yielded an IC50 of under 0.1 µM.
Work on `CN1C[C@H](c2ccc(Nc3ccc(-c4cnc5cnccn45)c4c3C(=O)NC4)nc2)CCC1=O` [I-326, (S)-4-(imidazo[1,2-a]pyrazin-3-yl)-7-((5-(1-methyl-6-oxopiperidin-3-yl)pyridin-2-yl)amino)isoin-dolin-1-one] yielded an IC50 of under 0.1 µM.
With `CN1CCN(c2cccc(Nc3cnc(-c4ccnc5c4ccn5C)c4c3C(=O)NC4)n2)CC1` [I-327, 4-(1-methyl-1H-pyrrolo[2,3-b]pyridin-4-yl)-7-((6-(4-methylpiperazin-1-yl)pyridin-2-yl)amino)-2,3-dihydro-1H-pyrrolo[3,4-c]pyridin-1-one] the IC50 was under 0.1 µM.
`O=C1NCc2c(-c3cnc4cnccn34)ccc(Nc3ccc(N4CCC[C@H](O)CC4)cn3)c21` [I-328, (S)-7-((5-(4-hydroxyazepan-1-yl)pyridin-2-yl)amino)-4-(imidazo[1,2-a]pyrazin-3-yl)isoindolin-1-one] gave an IC50 of under 0.1 µM.
For `O=C1NCc2c(-c3cnc4cnccn34)ccc(Nc3ccc(N4CCC[C@@H](O)CC4)cn3)c21` [I-329, (R)-7-((5-(4-hydroxyaze-pan-1-yl)pyridin-2-yl)amino)-4-(imidazol[1,2-a]pyrazin-3-yl)isoindolin-1-one], the IC50 was under 0.1 µM.
`O=C1NCc2c(-c3cnn4c3CCCC4)ncc(Nc3ccc(N4CCC(O)CC4)cn3)c21` [I-330, 7-((5-(4-hydroxypiperidin-1-yl)pyridin-2-yl)amino)-4-(4,5,6,7-tetrahydropyra-zolo[1,5-a]pyridin-3-yl)-2,3-dihydro-1H-pyrrolo[3,4-c]pyridin-1-one] was tested, and the IC50 was 0.1 to 1 µM.
`CN1C[C@H](c2ccc(Nc3ccc(-c4cnc5cnccn45)c4c3C(=O)NC4)nc2)CC1=O` [I-331, (S)-4-(imidazo[1,2-a]pyrazin-3-yl)-7-((5-(1-methyl-5-oxopyrrolidin-3-yl)pyridin-2-yl)amino)isoin-dolin-1-one] gave an IC50 of under 0.1 µM.
With `O=C1NCc2c(-c3cnc4cc(F)ccn34)ccc(Nc3ccc(N4CCOCC45CC5)cn3)c21` [I-335, 7-((5-(7-oxa-4-azaspiro[2.5]octan-4-yl)pyridin-2-yl)amino)-4-(7-fluoroimidazo [1,2-a]pyridin-3-yl)isoindolin-1-one] the IC50 was under 0.1 µM.
`CN1CC[C@H](c2ccc(Nc3ccc(-c4cnc5cc(F)ccn45)c4c3C(=O)NC4)nc2)C1=O` [I-336, (R)-4-(7-fluoroimidazo [1,2-a]pyridin-3-yl)-7-((5-(1-methyl-2-oxopyrrolidin-3-yl)pyridin-2-yl)amino)isoin-dolin-1-one] showed an IC50 of under 0.1 µM.
`O=C1NCc2c(-c3cnc4cc(F)ccn34)ccc(Nc3ccc(N4CCOC[C@H](O)C4)cn3)c21` [I-338, (R)-4-(7-fluoroimidazo [1,2-a]pyridin-3-yl)-7-((5-(6-hydroxy-1,4-oxazepan-4-yl)pyridin-2-yl)amino)isoin-dolin-1-one] gave an IC50 of under 0.1 µM.
Work on `O=C1NCc2c(-c3cnc4cc(F)ccn34)ccc(Nc3ccc(N4CCOC[C@@H](O)C4)cn3)c21` [I-339, (S)-4-(7-fluoroimidazo [1,2-a]pyridin-3-yl)-7-((5-(6-hydroxy-1,4-oxazepan-4-yl)pyridin-2-yl)amino)isoin-dolin-1-one] yielded an IC50 of under 0.1 µM.
